According to ChEMBL document CHEMBL1158853, “Laurencia rigida: chemical investigations of its antifouling dichloromethane extract” (J Nat Prod, 1997):
Structures can show the parent of a compound that is named as a salt. Calls of active or inactive are those of the source. The calls are words filed in the database; no cut-off is given here.

How the values were obtained:
[Chlorella] fusca [1] = Antialgal activity against Chlorella fusca at 34 ug by agar diffusion assay; assay type: functional; conditions: Scenedesmus fuscus; read-out: IZ
Microbotryum violaceum [2] = assay: Antifungal activity against Ustilago violacea at 34 ug by agar diffusion assay; assay type: functional; conditions: read-out: IZ
Fusarium oxysporum [3] = assay: Antifungal activity against Fusarium oxysporum at 34 ug by agar diffusion assay; assay type: functional; conditions: read-out: IZ
Priestia megaterium [4] = assay: Antibacterial activity against Bacillus megaterium at 34 ug by agar diffusion assay; assay type: functional; conditions: read-out: IZ
Mycotypha microspora [5] = assay: Antifungal activity against Mycotypha microspora at 34 ug by agar diffusion assay; assay type: functional; conditions: read-out: IZ
[6] = test system: Aspergillus pseudoglaucus; assay: Antifungal activity Eurotium repens at 34 ug by agar diffusion assay; assay type: functional; conditions: read-out: IZ
Escherichia coli [7] = assay: Antibacterial activity against Escherichia coli at 34 ug by agar diffusion assay; assay type: functional; conditions: read-out: IZ
Fusarium oxysporum [8] = assay: Antifungal activity against Fusarium oxysporum at 33 ug by agar diffusion assay; assay type: functional; conditions: read-out: IZ
Escherichia coli [9] = assay: Antibacterial activity against Escherichia coli at 33 ug by agar diffusion assay; assay type: functional; conditions: read-out: IZ
[Chlorella] fusca [10] = Antialgal activity against Chlorella fusca at 33 ug by agar diffusion assay; assay type: functional; conditions: Scenedesmus fuscus; read-out: IZ
Microbotryum violaceum [11] = assay: Antifungal activity against Ustilago violacea at 33 ug by agar diffusion assay; assay type: functional; conditions: read-out: IZ
[12] = test system: Aspergillus pseudoglaucus; assay: Antifungal activity Eurotium repens at 33 ug by agar diffusion assay; assay type: functional; conditions: read-out: IZ
Mycotypha microspora [13] = assay: Antifungal activity against Mycotypha microspora at 33 ug by agar diffusion assay; assay type: functional; conditions: read-out: IZ
Priestia megaterium [14] = assay: Antibacterial activity against Bacillus megaterium at 33 ug by agar diffusion assay; assay type: functional; conditions: read-out: IZ
Priestia megaterium [15] = assay: Antibacterial activity against Bacillus megaterium at 40 ug by agar diffusion assay; assay type: functional; conditions: read-out: IZ
Escherichia coli [16] = assay: Antibacterial activity against Escherichia coli at 40 ug by agar diffusion assay; assay type: functional; conditions: read-out: IZ
Fusarium oxysporum [17] = assay: Antifungal activity against Fusarium oxysporum at 40 ug by agar diffusion assay; assay type: functional; conditions: read-out: IZ
[18] = test system: Aspergillus pseudoglaucus; assay: Antifungal activity Eurotium repens at 40 ug by agar diffusion assay; assay type: functional; conditions: read-out: IZ
[Chlorella] fusca [19] = Antialgal activity against Chlorella fusca at 40 ug by agar diffusion assay; assay type: functional; conditions: Scenedesmus fuscus; read-out: IZ
Microbotryum violaceum [20] = assay: Antifungal activity against Ustilago violacea at 40 ug by agar diffusion assay; assay type: functional; conditions: read-out: IZ
Mycotypha microspora [21] = assay: Antifungal activity against Mycotypha microspora at 40 ug by agar diffusion assay; assay type: functional; conditions: read-out: IZ
Escherichia coli [22] = assay: Antibacterial activity against Escherichia coli at 50 ug by agar diffusion assay; assay type: functional, organism-based
Priestia megaterium [23] = assay: Antibacterial activity against Bacillus megaterium at 50 ug by agar diffusion assay; assay type: functional, organism-based
[Chlorella] fusca [24] = Antialgal activity against Chlorella fusca at 50 ug by agar diffusion assay; assay type: functional, organism-based; conditions: Scenedesmus fuscus
Fusarium oxysporum [25] = assay: Antifungal activity against Fusarium oxysporum at 60 ug by agar diffusion assay; assay type: functional; conditions: read-out: IZ
Mycotypha microspora [26] = assay: Antifungal activity against Mycotypha microspora at 60 ug by agar diffusion assay; assay type: functional; conditions: read-out: IZ
Microbotryum violaceum [27] = assay: Antifungal activity against Ustilago violacea at 60 ug by agar diffusion assay; assay type: functional, organism-based
[28] = test system: Aspergillus pseudoglaucus; assay: Antifungal activity Eurotium repens at 60 ug by agar diffusion assay; assay type: functional; conditions: read-out: IZ
Escherichia coli [29] = assay: Antibacterial activity against Escherichia coli at 25 ug by agar diffusion assay; assay type: functional; conditions: read-out: IZ
[30] = test system: Aspergillus pseudoglaucus; assay: Antifungal activity Eurotium repens at 25 ug by agar diffusion assay; assay type: functional; conditions: read-out: IZ
Amphibalanus amphitrite = assay: Toxicity in Balanus amphitrite nauplii larvae assessed as survival rate; assay type: organism-based; conditions: in vivo
Priestia megaterium [31] = assay: Antibacterial activity against Bacillus megaterium at 25 ug by agar diffusion assay; assay type: functional; conditions: read-out: IZ
Mycotypha microspora [32] = assay: Antifungal activity against Mycotypha microspora at 25 ug by agar diffusion assay; assay type: functional; conditions: read-out: IZ
[Chlorella] fusca [33] = Antialgal activity against Chlorella fusca at 25 ug by agar diffusion assay; assay type: functional; conditions: Scenedesmus fuscus; read-out: IZ
Microbotryum violaceum [34] = assay: Antifungal activity against Ustilago violacea at 25 ug by agar diffusion assay; assay type: functional; conditions: read-out: IZ
Fusarium oxysporum [35] = assay: Antifungal activity against Fusarium oxysporum at 25 ug by agar diffusion assay; assay type: functional; conditions: read-out: IZ
Fusarium oxysporum [36] = assay: Antifungal activity against Fusarium oxysporum at 135 ug by agar diffusion assay; assay type: functional; conditions: read-out: IZ
Mycotypha microspora [37] = assay: Antifungal activity against Mycotypha microspora at 135 ug by agar diffusion assay; assay type: functional; conditions: read-out: IZ
Priestia megaterium [38] = assay: Antibacterial activity against Bacillus megaterium at 135 ug by agar diffusion assay; assay type: functional; conditions: read-out: IZ
Microbotryum violaceum [39] = assay: Antifungal activity against Ustilago violacea at 135 ug by agar diffusion assay; assay type: functional; conditions: read-out: IZ
[40] = test system: Aspergillus pseudoglaucus; assay: Antifungal activity Eurotium repens at 135 ug by agar diffusion assay; assay type: functional; conditions: read-out: IZ
[Chlorella] fusca [41] = Antialgal activity against Chlorella fusca at 135 ug by agar diffusion assay; assay type: functional; conditions: Scenedesmus fuscus; read-out: IZ
Escherichia coli [42] = assay: Antibacterial activity against Escherichia coli at 135 ug by agar diffusion assay; assay type: functional; conditions: read-out: IZ
[43] = test system: Aspergillus pseudoglaucus; assay: Antifungal activity Eurotium repens at 50 ug by agar diffusion assay; conditions: read-out: IZ
Fusarium oxysporum [44] = assay: Antifungal activity against Fusarium oxysporum at 50 ug by agar diffusion assay; conditions: read-out: IZ
Mycotypha microspora [45] = assay: Antifungal activity against Mycotypha microspora at 50 ug by agar diffusion assay; conditions: read-out: IZ
Escherichia coli [46] = assay: Antibacterial activity against Escherichia coli at 85 ug by agar diffusion assay; assay type: functional; conditions: read-out: IZ
Priestia megaterium [47] = assay: Antibacterial activity against Bacillus megaterium at 85 ug by agar diffusion assay; assay type: functional; conditions: read-out: IZ
Fusarium oxysporum [48] = assay: Antifungal activity against Fusarium oxysporum at 45 ug by agar diffusion assay; assay type: functional; conditions: read-out: IZ
[49] = test system: Aspergillus pseudoglaucus; assay: Antifungal activity Eurotium repens at 45 ug by agar diffusion assay; assay type: functional; conditions: read-out: IZ
Escherichia coli [50] = assay: Antibacterial activity against Escherichia coli at 45 ug by agar diffusion assay; assay type: functional; conditions: read-out: IZ
Mycotypha microspora [51] = assay: Antifungal activity against Mycotypha microspora at 45 ug by agar diffusion assay; assay type: functional; conditions: read-out: IZ
Microbotryum violaceum [52] = assay: Antifungal activity against Ustilago violacea at 45 ug by agar diffusion assay; assay type: functional; conditions: read-out: IZ
[Chlorella] fusca [53] = Antialgal activity against Chlorella fusca at 45 ug by agar diffusion assay; assay type: functional; conditions: Scenedesmus fuscus; read-out: IZ
Priestia megaterium [54] = assay: Antibacterial activity against Bacillus megaterium at 45 ug by agar diffusion assay; assay type: functional; conditions: read-out: IZ
Priestia megaterium [55] = assay: Antibacterial activity against Bacillus megaterium at 65 ug by agar diffusion assay; assay type: functional; conditions: read-out: IZ
Escherichia coli [56] = assay: Antibacterial activity against Escherichia coli at 65 ug by agar diffusion assay; assay type: functional; conditions: read-out: IZ

Structure (SMILES): CC(=O)OC(C=C(C)C)C/C(C)=C1/CC=C(C)CC1 (stereo unspecified)
- zone of inhibition at 34 µg/disc ([Chlorella] fusca [1]): 3 mm
- zone of inhibition at 34 µg/disc (Microbotryum violaceum [2]): 0 mm
- zone of inhibition at 34 µg/disc (Fusarium oxysporum [3]): 0 mm
- zone of inhibition at 34 µg/disc (Priestia megaterium [4]): 0 mm
- zone of inhibition at 34 µg/disc (Mycotypha microspora [5]): 0 mm
- zone of inhibition at 34 µg/disc [6]: 0 mm
- zone of inhibition at 34 µg/disc (Escherichia coli [7]): 0 mm

Structure (SMILES): CC1=CC[C@]2(CC1)C(C)=C[C@@H](O)[C@H](Br)C2(C)C
- zone of inhibition at 33 µg/disc (Fusarium oxysporum [8]): 0 mm
- zone of inhibition at 33 µg/disc (Escherichia coli [9]): 0 mm
- zone of inhibition at 33 µg/disc ([Chlorella] fusca [10]): 3 mm
- zone of inhibition at 33 µg/disc (Microbotryum violaceum [11]): 0 mm
- zone of inhibition at 33 µg/disc [12]: 0 mm
- zone of inhibition at 33 µg/disc (Mycotypha microspora [13]): 3 mm
- zone of inhibition at 33 µg/disc (Priestia megaterium [14]): 0 mm

Structure (SMILES): C[C@@H]1CCC23[C@H]1CC[C@@]2(C)C[C@H](C)[C@]3(C)O (stereo partly specified)
- zone of inhibition at 40 µg/disc (Priestia megaterium [15]): 0 mm
- zone of inhibition at 40 µg/disc (Escherichia coli [16]): 0 mm
- zone of inhibition at 40 µg/disc (Fusarium oxysporum [17]): 0 mm
- zone of inhibition at 40 µg/disc [18]: 0 mm
- zone of inhibition at 40 µg/disc ([Chlorella] fusca [19]): 2 mm
- zone of inhibition at 40 µg/disc (Microbotryum violaceum [20]): 0 mm
- zone of inhibition at 40 µg/disc (Mycotypha microspora [21]): 0 mm

Structure (SMILES): C=C1CC[C@H](Br)C(C)(C)[C@]12CC=C(C)CC2
- Activity (Escherichia coli [22]): inactive
- Activity (Priestia megaterium [23]): inactive
- Activity ([Chlorella] fusca [24]): inactive

Structure (SMILES): CC1=CC[C@@]2(CC1)C(C)=CC[C@@H](Br)C2(C)C
- Activity (Escherichia coli [22]): inactive
- Activity (Priestia megaterium [23]): inactive
- Activity ([Chlorella] fusca [24]): inactive

Structure (SMILES): C[C@@H]1C[C@@H]([C@H](O)CC2CC(=O)NC(=O)C2)C(=O)[C@@H](C)C1 [CYCLOHEXIMIDE]
- zone of inhibition at 60 µg/disc (Fusarium oxysporum [25]): 3 mm
- zone of inhibition at 60 µg/disc (Mycotypha microspora [26]): 4 mm
- Activity (Microbotryum violaceum [27]): Active
- zone of inhibition at 60 µg/disc [28]: 5 mm

Structure (SMILES): C=C1C[C@H](O)[C@H](Br)C(C)(C)[C@]12CC=C(C)CC2 [DESCHLOROELATOL]
- zone of inhibition at 25 µg/disc (Escherichia coli [29]): 0 mm
- zone of inhibition at 25 µg/disc [30]: 18 mm
- Activity (Amphibalanus amphitrite): Toxic
- zone of inhibition at 25 µg/disc (Priestia megaterium [31]): 1 mm
- zone of inhibition at 25 µg/disc (Mycotypha microspora [32]): 20 mm
- zone of inhibition at 25 µg/disc ([Chlorella] fusca [33]): 2 mm
- zone of inhibition at 25 µg/disc (Microbotryum violaceum [34]): 0 mm
- zone of inhibition at 25 µg/disc (Fusarium oxysporum [35]): 0 mm

Structure (SMILES): C=C1C[C@H](O)[C@H](Br)C(C)(C)[C@@]12CCC(C)=C(Cl)C2 [ELATOL]
- zone of inhibition at 135 µg/disc (Fusarium oxysporum [36]): 7 mm
- zone of inhibition at 135 µg/disc (Mycotypha microspora [37]): 25 mm
- Activity (Amphibalanus amphitrite): Toxic
- zone of inhibition at 135 µg/disc (Priestia megaterium [38]): 2 mm
- zone of inhibition at 135 µg/disc (Microbotryum violaceum [39]): 3 mm
- zone of inhibition at 135 µg/disc [40]: 25 mm
- zone of inhibition at 135 µg/disc ([Chlorella] fusca [41]): 0 mm
- zone of inhibition at 135 µg/disc (Escherichia coli [42]): 0 mm

Structure (SMILES): Clc1ccc(COC(Cn2ccnc2)c2ccc(Cl)cc2Cl)c(Cl)c1 (stereo unspecified) [MICONAZOLE NITRATE]
- zone of inhibition at 50 µg/disc [43]: 18 mm
- zone of inhibition at 50 µg/disc (Fusarium oxysporum [44]): 1 mm
- zone of inhibition at 50 µg/disc (Mycotypha microspora [45]): 7 mm

Structure (SMILES): CC1(C)S[C@@H]2[C@H](NC(=O)Cc3ccccc3)C(=O)N2[C@H]1C(=O)O [PENICILLIN G POTASSIUM]
- zone of inhibition at 85 µg/disc (Escherichia coli [46]): 0 mm
- zone of inhibition at 85 µg/disc (Priestia megaterium [47]): 20 mm

Structure (SMILES): C=C1C[C@H](O)[C@H](Br)C(C)(C)[C@]12C=C[C@@](C)(O)CC2 [RIGIDOL]
- zone of inhibition at 45 µg/disc (Fusarium oxysporum [48]): 0 mm
- zone of inhibition at 45 µg/disc [49]: 0 mm
- zone of inhibition at 45 µg/disc (Escherichia coli [50]): 0 mm
- zone of inhibition at 45 µg/disc (Mycotypha microspora [51]): 4 mm
- zone of inhibition at 45 µg/disc (Microbotryum violaceum [52]): 5 mm
- zone of inhibition at 45 µg/disc ([Chlorella] fusca [53]): 0 mm
- zone of inhibition at 45 µg/disc (Priestia megaterium [54]): 0 mm

Structure (SMILES): CN[C@@H]1[C@H](O[C@H]2[C@H](O[C@H]3[C@H](O)[C@@H](O)[C@H](N=C(N)N)[C@@H](O)[C@@H]3N=C(N)N)O[C@@H](C)[C@]2(O)C=O)O[C@@H](CO)[C@H](O)[C@H]1O [STREPTOMYCIN SULFATE]
- zone of inhibition at 65 µg/disc (Priestia megaterium [55]): 5 mm
- zone of inhibition at 65 µg/disc (Escherichia coli [56]): 3 mm
